In patent US20210246122A1, “Triazine Compounds and Uses Thereof” (Aduro Biotech, Inc., priority 2018, published 2021) one finds IC50 data, which are given here for 19 molecules.

Each structure is given as a SMILES string.

The target of this test is T1, Human cGAS amino acids 155-522 (Homo sapiens, UniProt Q8N884).
T1 construct: hexahistidine tag (N, cleaved yes); made in house; host or cells: E. coli BL21 DE3 Rosetta 2
T1 sequence (Q8N884 157-522): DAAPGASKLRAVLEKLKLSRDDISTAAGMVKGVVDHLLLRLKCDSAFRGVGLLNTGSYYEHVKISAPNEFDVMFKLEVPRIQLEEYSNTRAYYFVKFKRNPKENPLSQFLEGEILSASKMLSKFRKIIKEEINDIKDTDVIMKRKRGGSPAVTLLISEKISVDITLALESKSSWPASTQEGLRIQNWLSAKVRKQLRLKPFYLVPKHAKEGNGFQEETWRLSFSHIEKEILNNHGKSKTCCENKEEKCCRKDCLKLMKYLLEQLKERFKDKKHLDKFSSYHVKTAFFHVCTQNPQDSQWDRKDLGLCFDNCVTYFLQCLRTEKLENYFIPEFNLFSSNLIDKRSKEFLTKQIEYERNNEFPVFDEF
Put plainly: cGAS activity assay (DNA-activated cGAS, remaining ATP measured by Kinase-Glo Max luciferase assay). It is filed as biochemical. The following applies: 300 nM purified cGAS, 1 μM dsDNA, 250 μM ATP, 100 μM GTP, 37° C. for 1.25 hours. As to the method: IC50 values were determined as follows:
Human cGAS sequence encoding amino acids 155-522 was cloned into a pET (EMD Millipore) based expression plasmid. The resulting construct contained a tandem N-terminal hexahistidine tag, maltose binding protein fusion followed by a tobacco etch virus protease cleavable linker preceding cGAS amino acids 155-522.
Construct sequence: Amino acids 155-522, Human cGAS
Protein was expressed and purified from E. coli BL21 DE3 Rosetta 2 (EMD Millipore) cells using standard techniques. Cells were grown in 2× yeast extract tryptone medium and expression was initiated via the addition of isopropyl β-D-1-thiogalactopyranoside. Expression proceeded overnight at 18° C. Cells were harvested by centrifugation and subsequently lysed via sonication. Insoluble fraction was removed by centrifugation. Maltose binding protein (MBP) fusion proteins were purified on a dextrin sepharose column (GE Healthcare) and the MBP tag was removed using tobacco etch virus protease overnight during dialysis. Protein was further purified on a heparin column (GE Healthcare) and eluted using a NaCl gradient. Column fraction were pooled and further purified on a Superdex 75 gel filtration column (GE Healthcare). Protein was quantified using 280 nm absorbance. Protein was then flash frozen in liquid nitrogen and stored at −80° C. until use.
Potential antagonists were diluted in 100% dimethyl sulfoxide and added to the reaction. Final dimethyl sulfoxide concentration was 5%. The compounds were tested from 1 μM with either 3- or 4-fold serial dilutions down to 0.000051 or 0.000004 μM respectively.
Two complementary DNA oligos (IDT DNA) were annealed by slow cooling from 95° C. The resulting double stranded DNA was used to activate cGAS.
Reactions were performed at 37° C. for 1.25 hours. Reaction buffer: 20 mM Tris HCl pH 9, 100 mM NaCl, 5 mM MgCl2, 0.1 mg/ml bovine gamma globulin, 250 μM adenosine triphosphate, 100 μM guanosine triphosphate, 0.5 mM Tris(2-carboxyethyl)phosphine hydrochloride, 1 μM double stranded DNA and 300 nM purified cGAS protein.
Reactions were stopped and ATP levels in the reaction were measured using a luciferase based assay. Promega Kinase-Glo Max Assay. Luminescence was measured on a plate reader (Molecular Devices). Values were normalized to control wells lacking compound.
As usually defined, the IC50 is the point on the concentration scale where inhibition reaches its midpoint. High values mean weaker potency, low ones greater potency. In the case of `COC(=O)[C@H](Cc1ccc(C#N)cc1)Nc1nc(Nc2cccc(CN3CCN(C(=O)[C@@H]4CCCO4)CC3)c2)nc(N(C)CCc2nc3ccc(OC)cc3[nH]2)n1` [TA1056, methyl (S)-3-(4-cyanophenyl)-2-((4-((2-(6-methoxy-1H-benzo[d]imidazol-2-yl)ethyl)(methyl)amino)-6-((3-((4-((S)-tetrahydrofuran-2-carbonyl)piperazin-1-yl)methyl)phenyl)amino)-1,3,5-triazin-2-yl)amino)propanoate], the IC50 was above 250 µM.

`CN(C)C(=O)[C@H](Cc1ccc(C#N)cc1)Nc1nc(Cl)nc(Nc2cccc(CN3CCN(C(=O)OC(C)(C)C)CC3)c2)n1` [TA1008, tert-butyl (S)-4-(3-((4-chloro-6-((3-(4-cyanophenyl)-1-(dimethylamino)-1-oxopropan-2-yl)amino)-1,3,5-triazin-2-yl)amino)benzyl)piperazine-1-carboxylate]: the IC50 is above 250 µM.

On to `COC(=O)[C@H](Cc1ccc(C#N)cc1)Nc1nc(NCc2nnn[nH]2)nc(Nc2cccc(CN3CCNCC3)c2)n1` [TA1068, methyl (S)-2-((4-(((1H-tetrazol-5-yl)methyl)amino)-6-((3-(piperazin-1-ylmethyl)phenyl)amino)-1,3,5-triazin-2-yl)amino)-3-(4-cyanophenyl)propanoate], for which the IC50 was above 250 µM.

With `COC(=O)[C@H](Cc1ccc(C#N)cc1)Nc1nc(NCc2nc3cc(F)ccc3[nH]2)nc(Nc2cccc(CN3CCN(C(=O)OC(C)(C)C)CC3)c2)n1` [TA1003, tert-butyl (S)-4-(3-((4-((3-(4-cyanophenyl)-1-methoxy-1-oxopropan-2-yl)amino)-6-(((5-fluoro-1H-benzo[d]imidazol-2-yl)methyl)amino)-1,3,5-triazin-2-yl)amino)benzyl)piperazine-1-carboxylate], the IC50 was above 250 µM.

Molecule `COCCNc1nc(Nc2cccc(CN3CCN(C(=O)c4nccnc4O)CC3)c2)nc(N[C@@H](Cc2ccc(C#N)cc2)C(=O)OC)n1` [TA1033, methyl (S)-3-(4-cyanophenyl)-2-((4-((3-((4-(3-hydroxypyrazine-2-carbonyl)piperazin-1-yl)methyl)phenyl)amino)-6-((2-methoxyethyl)amino)-1,3,5-triazin-2-yl)amino)propanoate] came in with a concentration for half-maximal inhibition (IC50) above 250 µM.

Molecule `COC(=O)[C@H](Cc1ccc(C#N)cc1)Nc1nc(Nc2cccc(CN3CCN(C(=O)c4nccnc4O)CC3)c2)nc(OC)n1` [TA1074, methyl (S)-3-(4-cyanophenyl)-2-((4-((3-((4-(3-hydroxypyrazine-2-carbonyl)piperazin-1-yl)methyl)phenyl)amino)-6-methoxy-1,3,5-triazin-2-yl)amino)propanoate] yielded an IC50 above 250 µM.

Take `CNC(=O)[C@H](Cc1ccc(C#N)cc1)Nc1nc(NCc2nc3cc(F)ccc3[nH]2)nc(Nc2cccc(CN3CCN(C=O)CC3)c2)n1` [TA1030, (S)-3-(4-cyanophenyl)-2-((4-(((5-fluoro-1H-benzo[d]imidazol-2-yl)methyl)amino)-6-((3-((4-formylpiperazin-1-yl)methyl)phenyl)amino)-1,3,5-triazin-2-yl)amino)-N-methylpropanamide]: the half-maximal inhibitory concentration (IC50) was above 250 µM.

In turn, `CN(C)C(=O)[C@H](Cc1ccc(C#N)cc1)Nc1ncnc(Nc2cccc(CN3CCNCC3)c2)n1` [TA1011, (S)-3-(4-cyanophenyl)-N,N-dimethyl-2-((4-((3-(piperazin-1-ylmethyl)phenyl)amino)-1,3,5-triazin-2-yl)amino)propanamide] yielded a half-maximal inhibitory concentration (IC50) above 250 µM.

`Cc1cc2nc(CN(C)c3nc(Nc4cccc(CN5CCN(S(=O)(=O)c6cnn(C)c6C)CC5)c4)nc(N[C@@H](Cc4ccc(C#N)cc4)C(=O)N(C)C)n3)[nH]c2cc1C` [TA1073, (S)-3-(4-cyanophenyl)-2-((4-(((5,6-dimethyl-1H-benzo[d]imidazol-2-yl)methyl)(methyl)amino)-6-((3-((4-((1,5-dimethyl-1H-pyrazol-4-yl)sulfonyl)piperazin-1-yl)methyl)phenyl)amino)-1,3,5-triazin-2-yl)amino)-N,N-dimethylpropanamide] returned an IC50 above 250 µM.

`CNC(=O)[C@H](Cc1ccc(C#N)cc1)Nc1nc(NCc2nc3cc(F)ccc3[nH]2)nc(Nc2cccc(CN3CCNCC3)c2)n1` [TA1022, (S)-3-(4-cyanophenyl)-2-((4-(((5-fluoro-1H-benzo[d]imidazol-2-yl)methyl)amino)-6-((3-(piperazin-1-ylmethyl)phenyl)amino)-1,3,5-triazin-2-yl)amino)-N-methylpropanamide] registered an IC50 above 250 µM.

As for `CN(C)C(=O)[C@H](Cc1ccc(C#N)cc1)Nc1nc(NCc2nc3cc(F)ccc3[nH]2)nc(Nc2cccc(CN3CCN(C(=O)OC(C)(C)C)CC3)c2)n1` [TA1036, tert-butyl (S)-4-(3-((4-((3-(4-cyanophenyl)-1-(dimethylamino)-1-oxopropan-2-yl)amino)-6-(((5-fluoro-1H-benzo[d]imidazol-2-yl)methyl)amino)-1,3,5-triazin-2-yl)amino)benzyl)piperazine-1-carboxylate], the IC50 is above 250 µM.

Consider `COCCNc1nc(Nc2cccc(CN3CCNCC3)c2)nc(N[C@@H](Cc2ccc(C#N)cc2)C(=O)OC)n1` [TA1031, methyl (S)-3-(4-cyanophenyl)-2-((4-((2-methoxyethyl)amino)-6-((3-(piperazin-1-ylmethyl)phenyl)amino)-1,3,5-triazin-2-yl)amino)propanoate], for which the IC50 is above 250 µM.

`COC(=O)[C@H](Cc1ccc(C#N)cc1)Nc1nc(NCc2nnn[nH]2)nc(Nc2cccc(CN3CCN(C(=O)c4nccnc4O)CC3)c2)n1` [TA1069, methyl (S)-2-((4-(((1H-tetrazol-5-yl)methyl)amino)-6-((3-((4-(3-hydroxypyrazine-2-carbonyl)piperazin-1-yl)methyl)phenyl)amino)-1,3,5-triazin-2-yl)amino)-3-(4-cyanophenyl)propanoate] displayed an IC50 above 250 µM.

`Cc1cc2nc(CN(C)c3nc(Nc4cccc(CN5CCNCC5)c4)nc(N[C@@H](Cc4ccc(C#N)cc4)C(=O)N(C)C)n3)[nH]c2cc1C` [TA1014, (S)-3-(4-cyanophenyl)-2-((4-(((5,6-dimethyl-1H-benzo[d]imidazol-2-yl)methyl)(methyl)amino)-6-((3-(piperazin-1-ylmethyl)phenyl)amino)-1,3,5-triazin-2-yl)amino)-N,N-dimethylpropanamide] displayed an IC50 above 250 µM.

`COC(=O)[C@H](Cc1ccc(C#N)cc1)Nc1nc(NCc2nc3cc(Cl)ccc3[nH]2)nc(Nc2cccc(CN3CCNCC3)c2)n1` [TA1058, methyl (S)-2-((4-(((5-chloro-1H-benzo[d]imidazol-2-yl)methyl)amino)-6-((3-(piperazin-1-ylmethyl)phenyl)amino)-1,3,5-triazin-2-yl)amino)-3-(4-cyanophenyl)propanoate] came in with an IC50 of 20 to 250 µM.

Consider `CN(C)C(=O)[C@H](Cc1ccc(C#N)cc1)Nc1nc(Cl)nc(Nc2cccc(CN3CCNCC3)c2)n1` [TA1009, (S)-2-((4-chloro-6-((3-(piperazin-1-ylmethyl)phenyl)amino)-1,3,5-triazin-2-yl)amino)-3-(4-cyanophenyl)-N,N-dimethylpropanamide], for which the IC50 was above 250 µM.

Molecule `COC(=O)[C@H](Cc1ccc(C#N)cc1)Nc1nc(NCc2nccn2C)nc(Nc2cccc(CN3CCN(C(=O)c4nccnc4O)CC3)c2)n1` [TA1034, methyl (S)-3-(4-cyanophenyl)-2-((4-((3-((4-(3-hydroxypyrazine-2-carbonyl)piperazin-1-yl)methyl)phenyl)amino)-6-(((1-methyl-1H-imidazol-2-yl)methyl)amino)-1,3,5-triazin-2-yl)amino)propanoate] registered an IC50 above 250 µM.

For `CN(C)C(=O)[C@H](Cc1ccc(C#N)cc1)Nc1nc(NCc2nc3cc(F)ccc3[nH]2)nc(Nc2cccc(CN3CCNCC3)c2)n1` [TA1013, (S)-3-(4-cyanophenyl)-2-((4-(((5-fluoro-1H-benzo[d]imidazol-2-yl)methyl)amino)-6-((3-(piperazin-1-ylmethyl)phenyl)amino)-1,3,5-triazin-2-yl)amino)-N,N-dimethylpropanamide], the IC50 is above 250 µM.

With `COC(=O)[C@H](Cc1ccc(C#N)cc1)Nc1nc(NCc2nc3cc(F)ccc3[nH]2)nc(Nc2cccc(CN3CCN(C(=O)C4CCN(S(C)(=O)=O)CC4)CC3)c2)n1` [TA1079, methyl (S)-3-(4-cyanophenyl)-2-((4-(((5-fluoro-1H-benzo[d]imidazol-2-yl)methyl)amino)-6-((3-((4-(1-(methylsulfonyl)piperidine-4-carbonyl)piperazin-1-yl)methyl)phenyl)amino)-1,3,5-triazin-2-yl)amino)propanoate], the IC50 is above 250 µM.
